Assay results: patent US20020160988A1 (priority 2001, published 2002)
Where two headings read alike, the source gives them in different places.

Key:
[1] = target: T1, recombinant human acetylcholineesterase (rHuAChE) (Homo sapiens, UniProt P22303); settings: for t½(ks): human, recombinant enzyme
[2] = in vivo; settings: mouse
[3] = target: T1, recombinant human acetylcholineesterase (rHuAChE); experiment: biochemical
[4] = system: mice; settings: mouse, in vivo
[5] = system: carrageenan-induced rat paw edema; settings: in vivo
[6] = system: CAR-induced brain edema; design: species or system rats; settings: rat, in vivo
[7] = target: T2, fetal bovine serum-AChE (FBS-AChE) (Bos taurus, UniProt P23795); settings: for t½(ks): bovine, serum
T2 sequence (P23795 31-613): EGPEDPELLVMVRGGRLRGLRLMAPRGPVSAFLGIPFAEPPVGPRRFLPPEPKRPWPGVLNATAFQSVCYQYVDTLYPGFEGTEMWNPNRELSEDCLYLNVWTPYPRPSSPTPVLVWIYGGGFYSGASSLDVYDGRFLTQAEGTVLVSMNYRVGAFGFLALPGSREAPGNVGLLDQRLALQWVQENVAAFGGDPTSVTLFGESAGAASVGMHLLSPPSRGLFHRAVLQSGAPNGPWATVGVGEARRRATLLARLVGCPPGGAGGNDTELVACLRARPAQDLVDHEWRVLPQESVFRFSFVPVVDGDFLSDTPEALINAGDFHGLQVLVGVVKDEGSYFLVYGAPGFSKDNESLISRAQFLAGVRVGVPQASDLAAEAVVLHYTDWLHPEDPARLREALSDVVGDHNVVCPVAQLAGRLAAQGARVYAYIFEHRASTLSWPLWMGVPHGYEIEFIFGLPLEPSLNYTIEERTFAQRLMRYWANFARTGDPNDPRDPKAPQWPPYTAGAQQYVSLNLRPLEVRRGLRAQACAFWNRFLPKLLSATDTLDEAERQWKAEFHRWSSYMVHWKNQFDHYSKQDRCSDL

[8] = target: T3, human plasma butyrylcholinesterase (HuBChE) (Homo sapiens, UniProt P06276); settings: for t½(ks): human, plasma
T3 sequence (P06276 29-602): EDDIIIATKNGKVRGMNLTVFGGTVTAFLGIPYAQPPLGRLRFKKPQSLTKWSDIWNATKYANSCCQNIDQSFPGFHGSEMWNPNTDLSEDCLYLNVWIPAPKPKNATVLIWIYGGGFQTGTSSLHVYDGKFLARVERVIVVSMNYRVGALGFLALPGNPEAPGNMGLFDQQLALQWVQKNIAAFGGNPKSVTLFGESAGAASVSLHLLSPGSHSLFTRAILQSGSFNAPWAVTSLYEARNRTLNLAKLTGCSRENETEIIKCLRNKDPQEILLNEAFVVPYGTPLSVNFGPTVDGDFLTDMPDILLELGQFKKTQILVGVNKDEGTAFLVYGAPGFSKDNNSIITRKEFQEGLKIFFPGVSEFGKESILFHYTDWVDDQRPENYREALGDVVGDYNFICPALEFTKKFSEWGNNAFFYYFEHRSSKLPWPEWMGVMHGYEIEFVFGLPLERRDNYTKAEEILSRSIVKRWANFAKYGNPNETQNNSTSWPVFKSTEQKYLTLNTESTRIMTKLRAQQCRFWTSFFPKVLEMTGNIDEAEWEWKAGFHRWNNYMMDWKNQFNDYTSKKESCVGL

[9] = physchem; settings: pH 7.4
[10] = target: T2, fetal bovine serum-AChE (FBS-AChE); experiment: biochemical
[11] = target: T3, human plasma butyrylcholinesterase (HuBChE); experiment: biochemical
[12] = target: COX I (bovine seminal vesicles) (Bos taurus, UniProt O62664); experiment: biochemical; settings: read-out: % Inhibition COX I
Chain of COX I (bovine seminal vesicles) (O62664 25-600): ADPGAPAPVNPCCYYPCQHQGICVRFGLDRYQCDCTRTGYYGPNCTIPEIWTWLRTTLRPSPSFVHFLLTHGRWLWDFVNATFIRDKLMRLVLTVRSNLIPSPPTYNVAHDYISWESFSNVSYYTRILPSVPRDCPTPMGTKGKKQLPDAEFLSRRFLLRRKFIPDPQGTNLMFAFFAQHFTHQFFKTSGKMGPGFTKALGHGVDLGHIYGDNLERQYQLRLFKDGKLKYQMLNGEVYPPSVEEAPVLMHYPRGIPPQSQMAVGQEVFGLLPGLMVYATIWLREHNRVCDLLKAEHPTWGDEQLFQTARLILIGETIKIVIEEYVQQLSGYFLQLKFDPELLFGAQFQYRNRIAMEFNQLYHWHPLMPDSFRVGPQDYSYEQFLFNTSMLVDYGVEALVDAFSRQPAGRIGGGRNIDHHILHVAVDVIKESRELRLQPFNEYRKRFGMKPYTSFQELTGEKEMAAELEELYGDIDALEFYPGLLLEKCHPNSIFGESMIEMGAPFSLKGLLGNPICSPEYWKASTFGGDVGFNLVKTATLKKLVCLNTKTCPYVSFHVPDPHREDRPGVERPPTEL

[13] = target: COX II (sheep placenta) (Ovis aries, UniProt P79208); experiment: biochemical; settings: read-out: % Inhibition COX II
Chain of COX II (sheep placenta) (P79208 17-603): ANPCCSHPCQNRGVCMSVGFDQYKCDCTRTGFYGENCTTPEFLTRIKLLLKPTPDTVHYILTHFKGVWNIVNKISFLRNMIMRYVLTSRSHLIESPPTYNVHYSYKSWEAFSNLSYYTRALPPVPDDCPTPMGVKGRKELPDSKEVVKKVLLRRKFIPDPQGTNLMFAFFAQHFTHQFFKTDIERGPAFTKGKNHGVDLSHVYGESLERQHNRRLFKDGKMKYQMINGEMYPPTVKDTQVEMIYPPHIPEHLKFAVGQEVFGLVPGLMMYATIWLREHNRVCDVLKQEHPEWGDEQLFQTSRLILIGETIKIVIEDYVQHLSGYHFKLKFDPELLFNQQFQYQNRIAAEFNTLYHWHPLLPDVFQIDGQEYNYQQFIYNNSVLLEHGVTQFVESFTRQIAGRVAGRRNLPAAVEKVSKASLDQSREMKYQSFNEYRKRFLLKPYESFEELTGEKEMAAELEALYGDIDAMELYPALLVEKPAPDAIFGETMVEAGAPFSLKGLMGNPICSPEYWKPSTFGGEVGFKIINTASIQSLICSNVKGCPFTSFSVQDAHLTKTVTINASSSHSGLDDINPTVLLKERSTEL

[14] = system: whole blood ChE; design: species or system mice; settings: mouse, in vivo, 0.13 mg/kg
[15] = system: mice; settings: mouse, in vivo; remark: listed apart in the source

T1 sequence (P22303 32-614): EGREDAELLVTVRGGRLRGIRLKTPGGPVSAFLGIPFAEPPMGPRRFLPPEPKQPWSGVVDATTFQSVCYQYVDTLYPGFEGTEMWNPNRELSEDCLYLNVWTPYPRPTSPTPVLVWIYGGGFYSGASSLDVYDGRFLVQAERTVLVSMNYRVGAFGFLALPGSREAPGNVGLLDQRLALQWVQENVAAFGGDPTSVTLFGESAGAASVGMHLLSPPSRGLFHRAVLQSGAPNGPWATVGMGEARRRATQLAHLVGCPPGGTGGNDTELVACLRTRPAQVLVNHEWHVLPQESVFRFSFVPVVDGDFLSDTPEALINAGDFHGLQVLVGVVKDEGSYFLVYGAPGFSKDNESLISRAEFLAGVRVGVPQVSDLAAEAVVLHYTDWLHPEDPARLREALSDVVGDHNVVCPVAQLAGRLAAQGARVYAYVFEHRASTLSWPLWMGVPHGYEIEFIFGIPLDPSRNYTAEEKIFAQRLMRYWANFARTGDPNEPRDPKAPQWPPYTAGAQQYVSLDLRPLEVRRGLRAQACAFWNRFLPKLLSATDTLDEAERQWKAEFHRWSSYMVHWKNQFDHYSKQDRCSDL

3-Dimethylcarbamoyl-1-{7-[2-(4-isobutyl-phenyl)-propionylamino]-heptyl}-pyridinium bromide [IBU-Am-PH]
Ki [1]: 0.047 µM
K′ [1]: 0.13 min⁻¹
ki (bimolecular rate constant) [1]: 2.8 × 10^6 M^−1m^−1
ks × 10^3 [1]: 27 minutes^−1

CC(=O)Oc1ccccc1C(=O)O [ASPIRIN, aspirin]
LD50 ([2]; ip): > 100 mg/kg

COC(=O)C1=CCCN(C)C1 [Arecoline, arecoline]
mode of AChE inhibition [1]: reversible inhibition of AChE
IC50 [3]: > 100 µM

CCN(C)C(=O)Oc1cccc([C@H](C)N(C)C)c1 [EXELON]
Therapeutic Index (TI = LD50/ED50) [4]: 12.5

CC(C)Cc1ccc(C(C)C(=O)O)cc1 (stereo not shown) [IBU, ibuprofen]
edema level (% EDEMA) after treatment [5]: about 30%
brain % water content [6]: 83%
LD50 ([2]; im): > 100 mg/kg

CC(C)Cc1ccc(C(C)C(=O)OCCCCCCCCN2CCC=C(OC(=O)N(C)C)C2)cc1 (stereo not shown) [IBU-4H-PO]
K′ [7]: 1.9 min⁻¹
ki (bimolecular rate constant) [7]: 2.8 × 10^4 M^−1m^−1
ks × 10^3 [7]: 20 minutes^−1
t½(ks) [7]: 0.575 h
K′ [1]: 0.23 min⁻¹
ki (bimolecular rate constant) [1]: 1.9 × 10^4 M^−1m^−1
ks × 10^3 [1]: 6.9 minutes^−1
t½(ks) [1]: 1.67 h
K′ [8]: 0.19 min⁻¹
ki (bimolecular rate constant) [8]: 1.2 × 10^5 M^−1m^−1
ks × 10^3 [8]: 0.9 minutes^−1
t½(ks) [8]: 13.2 h
LD50 ([2]; ip): 54.2 mg/kg
logD [9]: 2
Ki [10]: 66 µM
Ki [3]: 12 µM
Ki [11]: 1.6 µM

COc1ccc2c(c1)c(CC(=O)O)c(C)n2C(=O)c1ccc(Cl)cc1 [INDO, indomethacin]
edema level (% EDEMA) after treatment [5]: about 30%
LD50 ([2]; ip): 12.4 mg/kg

COC(=O)c1cccnc1 [MN, methyl nicotinate]
mode of AChE inhibition [1]: reversible inhibition of AChE
IC50 [3]: > 100 µM

COc1ccc2cc([C@H](C)C(=O)O)ccc2c1 [NAPRO, naproxen]
inhibition at 1 µM [12]: 37%
inhibition at 1 µM [13]: 85%

CN(C)C(=O)Oc1ccc[n+](C)c1 [PYR, pyridostigmine]
ChE inhibition [14]: less than 20%
duration time of ChE inhibition [14]: 1 to 1.5 h
K′ [7]: 0.31 min⁻¹
ki (bimolecular rate constant) [7]: 2.5 × 10^5 M^−1m^−1
ks × 10^3 [7]: 10 minutes^−1
t½(ks) [7]: 1.15 h
K′ [1]: 0.40 min⁻¹
ki (bimolecular rate constant) [1]: 2.7 × 10^5 M^−1m^−1
ks × 10^3 [1]: 9.2 minutes^−1
t½(ks) [1]: 1.25 h
K′ [8]: 0.08 min⁻¹
ki (bimolecular rate constant) [8]: 7.3 × 10^4 M^−1m^−1
ks × 10^3 [8]: 7.1 minutes^−1
t½(ks) [8]: 1.62 h
LD50 ([2]; im): 2.1 mg/kg
LD50 ([2]; ip): 5.1 mg/kg
Ki [10]: 1.2 µM

Nc1c2c(nc3ccccc13)CCCC2 [TACRINE]
Therapeutic Index (TI = LD50/ED50) [4]: 3.5

CN1[C@@H]2CC[C@H]1C[C@@H](OC(=O)C(CO)c1ccccc1)C2 (stereo partly shown) [atropine]
effect of pretreatment on IBU-PO-induced hypothermia [15]: partially reverses the hypothermia

CNC1(C)C2CCC(C2)C1(C)C (stereo not shown) [mecamylamine]
time of maximal IBU-PO-induced hypothermia after pretreatment [15]: 60 min

CNC(=O)Oc1ccc2c(c1)[C@]1(C)CCN(C)[C@@H]1N2C [physostigmine]
Therapeutic Index (TI = LD50/ED50) [4]: 3.4
